Reference: US20240101573A1, “MACROCYCLIC K-RAS G12C INHIBITOR, PREPARATION METHOD THEREFOR AND USE THEREOF” (Abbisko Therapeutics Co., Ltd., priority 2020, published 2024)
pIC50: −log10 of the molar value.

Key:
MIA PaCa-2 = assay: Anti-proliferation 2D CTG test (MIA PaCa-2); format: cell-based; conditions: MIAPACA-2 cells, 500 cells/well, 5 days incubation with compound, CTG readout
In short: (§1)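 H358 (1500 cells/well) and MIA PaCa-2 (500 cells/well) seeded overnight, then treated 5 days at 37 °C with 10-point 1:3 dilutions, top final […], 0.5% DMSO. Viability by CellTiter-Glo luminescence; IC50 from four-parameter fit normalized to plate controls.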

H358 = assay: Anti-proliferation 2D CTG test (H358); format: cell-based; conditions: H358 cells, 1500 cells/well, 5 days incubation with compound, CTG readout
In short: as §1

SMILES | pIC50 (MIA PaCa-2) | pIC50 (H358) | pIC50 (MIA PaCa-2; Homo sapiens, MIA PaCa-2, 120 h) | pIC50 (H358; Homo sapiens, NCI-H358, 120 h)
C=CC(=O)N1CCN(c2nc(=O)n3c4nc(c(F)cc24)-c2c(ccc(Cl)c2F)OCC(O)C(OCC)c2ccnc(C(C)C)c2-3)[C@@H](C)C1 (stereo partly drawn) [Example 68, 2^4-((S)-4-acryloyl-2-methylpiperazin-1-yl)-3^5-chloro-7-ethoxy-2^6,3^6-difluoro-6-hydroxy-1^2-isopropyl-2^1,2^2-dihydro-4-oxa-2(1,7)-pyrido[2,3-d]pyrimidina-1(3,4)-pyridina-3(1,2)-benzocycloheptane-2^2-one] | 7.66 | 7.57 |  | 
C=CC(=O)N1CCN(c2nc(=O)n3c4nc(c(F)cc24)-c2c(ccc(Cl)c2F)OCC(OCC)C(O)c2ccnc(C(C)C)c2-3)[C@@H](C)C1 (stereo partly drawn) [Example 69, 2^4-((S)-4-acryloyl-2-methylpiperazin-1-yl)-3^5-chloro-6-ethoxy-2^6,3^6-difluoro-7-hydroxy-1^2-isopropyl-2^1,2^2-dihydro-4-oxa-2(1,7)-pyrido[2,3-d]pyrimidina-1(3,4)-pyridina-3(1,2)-benzocycloheptane-2^2-one] | 7.59 | 7.51 |  | 
C=CC(=O)N1C[C@H](C)N(c2nc(=O)n3c4nc(c(F)cc24)-c2c(ccc(Cl)c2F)OCC(O)C(OCC)c2ccnc(C(C)C)c2-3)C[C@H]1C (stereo partly drawn) [Example 70, 2^4-((2S,5R)-4-acryloyl-2,5-dimethylpiperazin-1-yl)-3^5-chloro-7-ethoxy-2^6,3^6-difluoro-6-hydroxy-1^2-isopropyl-2^1,2^2-dihydro-4-oxa-2(1,7)-pyrido[2,3-d]pyrimidina-1(3,4)-pyridina-3(1,2)-benzocycloheptane-2^2-one] | 8.15 | 7.80 |  | 
C=CC(=O)N1CCN(c2nc(=O)n3c4nc(c(F)cc24)-c2c(ccc(Cl)c2F)OCC(O)C(OCC)c2ccnc(C(C)C)c2-3)[C@@H](C)C1 (stereo partly drawn) [Example 72, (R)-2^4-((S)-4-acryloyl-2-methylpiperazin-1-yl)-3^5-chloro-7-ethoxy-2^6,3^6-difluoro-6-hydroxy-1^2-isopropyl-2^1,2^2-dihydro-4-oxa-2(1,7)-pyrido[2,3-d]pyrimidina-1(3,4)-pyridina-3(1,2)-benzocycloheptane-2^2-one] | 8.22 | 8.15 |  | 
C=CC(=O)N1CCN(c2nc(=O)n3c4nc(c(F)cc24)-c2c(ccc(Cl)c2F)OCC(OCC)C(O)c2ccnc(C(C)C)c2-3)[C@@H](C)C1 (stereo partly drawn) [Example 75, (R)-2^4-((S)-4-acryloyl-2-methylpiperazin-1-yl)-3^5-chloro-6-ethoxy-2^6,3^6-difluoro-7-hydroxy-1^2-isopropyl-2^1,2^2-dihydro-4-oxa-2(1,7)-pyrido[2,3-d]pyrimidina-1(3,4)-pyridina-3(1,2)-benzocycloheptane-2^2-one] | 8.22 | 8.52 |  | 
C=CC(=O)N1CCN(c2nc(=O)n3c4nc(c(F)cc24)-c2c(F)cccc2OCCCc2ccnc(C(C)C)c2-3)[C@@H](C)C1 [Positive compound, reference compound] |  |  | 7.96 | 8.10

Results, then the compound that gave them:

pIC50 (MIA PaCa-2) | pIC50 (H358) | pIC50 (MIA PaCa-2; Homo sapiens, MIA PaCa-2, 120 h) | pIC50 (H358; Homo sapiens, NCI-H358, 120 h) | SMILES
8.52 | 8.10 |  |  | C=CC(=O)N1C[C@H](C)N(c2nc(=O)n3c4nc(c(F)cc24)-c2c(ccc(Cl)c2F)OCC(OCC)C(O)c2ccnc(C(C)C)c2-3)C[C@H]1C (stereo partly drawn) [Example 71, 2^4-((2S,5R)-4-acryloyl-2,5-dimethylpiperazin-1-yl)-3^5-chloro-6-ethoxy-2^6,3^6-difluoro-7-hydroxy-1^2-isopropyl-2^1,2^2-dihydro-4-oxa-2(1,7)-pyrido[2,3-d]pyrimidina-1(3,4)-pyridina-3(1,2)-benzocycloheptane-2^2-one]
8.40 | 8.40 |  |  | C=CC(=O)N1C[C@H](C)N(c2nc(=O)n3c4nc(c(F)cc24)-c2c(ccc(Cl)c2F)OCC(O)C(OCC)c2ccnc(C(C)C)c2-3)C[C@H]1C (stereo partly drawn) [Example 76, (R)-2^4-((2S,5R)-4-acryloyl-2,5-dimethylpiperazin-1-yl)-3^5-chloro-7-ethoxy-2^6,3^6-difluoro-6-hydroxy-1^2-isopropyl-2^1,2^2-dihydro-4-oxa-2(1,7)-pyrido[2,3-d]pyrimidina-1(3,4)-pyridina-3(1,2)-benzocycloheptane-2^2-one]
8.52 | 8.30 |  |  | C=CC(=O)N1C[C@H](C)N(c2nc(=O)n3c4nc(c(F)cc24)-c2c(ccc(Cl)c2F)OCC(OCC)C(O)c2ccnc(C(C)C)c2-3)C[C@H]1C (stereo partly drawn) [Example 78, (R)-2^4-((2S,5R)-4-acryloyl-2,5-dimethylpiperazin-1-yl)-3^5-chloro-6-ethoxy-2^6,3^6-difluoro-7-hydroxy-1^2-isopropyl-2^1,2^2-dihydro-4-oxa-2(1,7)-pyrido[2,3-d]pyrimidina-1(3,4)-pyridina-3(1,2)-benzocycloheptane-2^2-one]
